Measurements taken from patent US11065257B2, “Substituted pyrazoloazepin-4-ones and their use as phosphodiesterase inhibitors” (LEO Pharma A/S, priority 2016, dated 2021).

Biological target: T1, human PDE4D catalytic domain (Homo sapiens, UniProt Q08499)
T1 construct: UniProt no; Q08499 [S380-L740]
Experiment: PDE4 Assay
Format: biochemical
Conditions: human PDE4D catalytic domain (S380-L740), TR-FRET with FAM-cAMP; expressed as a range of IC50; read-out: PDE4 Potency Range
Description: The human PDE4D catalytic domain (UniProt no. Q08499 [S380-L740]) was incubated with a mixture of non-labelled cAMP (cyclic adenosine monophosphate) and fluorescein amidite (FAM) conjugated cAMP and titrated test or reference compound. Following brief incubation the enzymatic reaction was stopped by addition of binding buffer containing nanoparticles with immobilized trivalent metal ions capable of binding 1) AMP phospho groups and 2) terbium (Tb) donor fluorophores. Subsequent excitation of the Tb donor triggers time-resolved FRET to adjacent FAM acceptor molecules resulting in light emission. In the presence of a PDE4 inhibitor, AMP generation was reduced resulting in a lower fluorescence signal. The cAMP phosphodiester is not bound by the detection system.
The results were calculated as the molar concentrations resulting in 50% inhibition of the substrate cleavage compared to controls samples, and are expressed as a range of IC50 (nM).

T1 sequence (Q08499 380-740): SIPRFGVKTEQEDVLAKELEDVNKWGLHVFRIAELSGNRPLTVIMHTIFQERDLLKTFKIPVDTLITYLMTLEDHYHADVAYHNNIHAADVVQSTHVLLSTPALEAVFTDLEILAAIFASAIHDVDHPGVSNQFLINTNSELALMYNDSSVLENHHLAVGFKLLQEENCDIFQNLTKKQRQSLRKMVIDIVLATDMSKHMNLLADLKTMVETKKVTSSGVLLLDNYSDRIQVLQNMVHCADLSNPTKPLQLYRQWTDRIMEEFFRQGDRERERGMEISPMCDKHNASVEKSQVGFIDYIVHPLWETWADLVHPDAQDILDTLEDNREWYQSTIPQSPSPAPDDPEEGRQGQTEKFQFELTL

Question: With CCc1nn(CCCOC(=O)c2c[nH]nn2)c2c1C(=O)NCC1(CCOCC1)C2 [Example 25, 3-(3-ethyl-4-oxo-spiro[6,8-dihydro-5H-pyrazolo[4,3-c]azepine-7,4′-tetrahydropyran]-1-yl)propyl 1H-triazole-4-carboxylate] as the molecule, how does the IC50 read?
Answer: 100 to 500 nM

Question: With CCc1nn(CCCOC(=O)c2nc[nH]n2)c2c1C(=O)NCC1(CCOCC1)C2 [Example 26, 3-(3-ethyl-4-oxo-spiro[6,8-dihydro-5H-pyrazolo[4,3-c]azepine-7,4′-tetrahydropyran]-1-yl)propyl 1H-1,2,4-triazole-3-carboxylate] as the molecule, how does the IC50 read?
Answer: > 500 nM

Question: CCc1nn(CCCOC(=O)c2cnon2)c2c1C(=O)NCC1(CCOCC1)C2 [Example 27, 3-(3-ethyl-4-oxo-spiro[6,8-dihydro-5H-pyrazolo[4,3-c]azepine-7,4′-tetrahydropyran]-1-yl)propyl 1,2,5-oxadiazole-3-carboxylate] was tested. Which IC50 did it give?
Answer: 100 to 500 nM

Question: How did the IC50 turn out when CCc1nn(CCCOC(=O)C2CCOC2)c2c1C(=O)NCC1(CCOCC1)C2 (stereo not shown) [Example 28, 3-(3-ethyl-4-oxo-spiro[6,8-dihydro-5H-pyrazolo[4,3-c]azepine-7,4′-tetrahydropyran]-1-yl)propyl tetrahydrofuran-3-carboxylate] was run?
Answer: > 500 nM

Question: With CCc1nn(CCCOC(=O)c2cccnn2)c2c1C(=O)NCC1(CCOCC1)C2 [Example 29, 3-(3-ethyl-4-oxo-spiro[6,8-dihydro-5H-pyrazolo[4,3-c]azepine-7,4′-tetrahydropyran]-1-yl)propyl pyridazine-3-carboxylate] as the molecule, how does the IC50 read?
Answer: > 500 nM

Question: For CCc1nn(CCCOC(=O)c2ccnnc2)c2c1C(=O)NCC1(CCOCC1)C2 [Example 30, 3-(3-ethyl-4-oxo-spiro[6,8-dihydro-5H-pyrazolo[4,3-c]azepine-7,4′-tetrahydropyran]-1-yl)propyl pyridazine-4-carboxylate], which IC50 is on record?
Answer: > 500 nM

Question: How did the IC50 turn out when CCc1nn(CCCOC(=O)c2ncccn2)c2c1C(=O)NCC1(CCOCC1)C2 [Example 31, 3-(3-ethyl-4-oxo-spiro[6,8-dihydro-5H-pyrazolo[4,3-c]azepine-7,4′-tetrahydropyran]-1-yl)propyl pyrimidine-2-carboxylate] was run?
Answer: > 500 nM

Question: With CCc1nn(CCCOC(=O)c2ccn(C)n2)c2c1C(=O)NCC1(CCOCC1)C2 [Example 32, 3-(3-ethyl-4-oxo-spiro[6,8-dihydro-5H-pyrazolo[4,3-c]azepine-7,4′-tetrahydropyran]-1-yl)propyl 1-methylpyrazole-3-carboxylate] as the molecule, how does the IC50 read?
Answer: > 500 nM

Question: Which IC50 does the source give for CCc1nn(CCCOC(=O)c2cc(C)n[nH]2)c2c1C(=O)NCC1(CCOCC1)C2 [Example 33, 3-(3-ethyl-4-oxo-spiro[6,8-dihydro-5H-pyrazolo[4,3-c]azepine-7,4′-tetrahydropyran]-1-yl)propyl 5-methyl-1H-pyrazole-3-carboxylate] here?
Answer: 100 to 500 nM

Question: For CCc1nn(CCCOC(=O)c2ccnn2C)c2c1C(=O)NCC1(CCOCC1)C2 [Example 35, 3-(3-ethyl-4-oxo-spiro[6,8-dihydro-5H-pyrazolo[4,3-c]azepine-7,4′-tetrahydropyran]-1-yl)propyl 2-methylpyrazole-3-carboxylate], which IC50 is on record?
Answer: 100 to 500 nM

Question: With CCc1nn(CCCOC(=O)c2cnc(C)[nH]2)c2c1C(=O)NCC1(CCOCC1)C2 [Example 36, 3-(3-ethyl-4-oxo-spiro[6,8-dihydro-5H-pyrazolo[4,3-c]azepine-7,4′-tetrahydropyran]-1-yl)propyl 2-methyl-1H-imidazole-4-carboxylate] as the molecule, how does the IC50 read?
Answer: 100 to 500 nM

Question: With CCc1nn(CCCOC(=O)c2cnn(C)c2)c2c1C(=O)NCC1(CCOCC1)C2 [Example 38, 3-(3-ethyl-4-oxo-spiro[6,8-dihydro-5H-pyrazolo[4,3-c]azepine-7,4′-tetrahydropyran]-1-yl)propyl 1-methylpyrazole-4-carboxylate] as the molecule, how does the IC50 read?
Answer: 100 to 500 nM

Question: Which IC50 does the source give for CCc1nn(CCCOC(=O)c2cn(C)cn2)c2c1C(=O)NCC1(CCOCC1)C2 [Example 39, 3-(3-ethyl-4-oxo-spiro[6,8-dihydro-5H-pyrazolo[4,3-c]azepine-7,4′-tetrahydropyran]-1-yl)propyl 1-methylimidazole-4-carboxylate] here?
Answer: > 500 nM

Question: How did the IC50 turn out when CCc1nn(CCCOC(=O)c2nccn2C)c2c1C(=O)NCC1(CCOCC1)C2 [Example 40, 3-(3-ethyl-4-oxo-spiro[6,8-dihydro-5H-pyrazolo[4,3-c]azepine-7,4′-tetrahydropyran]-1-yl)propyl 1-methylimidazole-2-carboxylate] was run?
Answer: 100 to 500 nM

Question: CCc1nn(CCCOC(=O)c2cncn2C)c2c1C(=O)NCC1(CCOCC1)C2 [Example 41, 3-(3-ethyl-4-oxo-spiro[6,8-dihydro-5H-pyrazolo[4,3-c]azepine-7,4′-tetrahydropyran]-1-yl)propyl 3-methylimidazole-4-carboxylate] was tested. Which IC50 did it give?
Answer: 100 to 500 nM

Question: For CCc1nn(CCCOC(=O)c2oncc2C)c2c1C(=O)NCC1(CCOCC1)C2 [Example 42, 3-(3-ethyl-4-oxo-spiro[6,8-dihydro-5H-pyrazolo[4,3-c]azepine-7,4′-tetrahydropyran]-1-yl)propyl 4-methylisoxazole-5-carboxylate], which IC50 is on record?
Answer: 100 to 500 nM

Question: Which IC50 does the source give for CCc1nn(CCCOC(=O)c2cc(C)no2)c2c1C(=O)NCC1(CCOCC1)C2 [Example 43, 3-(3-ethyl-4-oxo-spiro[6,8-dihydro-5H-pyrazolo[4,3-c]azepine-7,4′-tetrahydropyran]-1-yl)propyl 3-methylisoxazole-5-carboxylate] here?
Answer: 100 to 500 nM

Question: How did the IC50 turn out when CCc1nn(CCCOC(=O)c2cc(C)on2)c2c1C(=O)NCC1(CCOCC1)C2 [Example 44, 3-(3-ethyl-4-oxo-spiro[6,8-dihydro-5H-pyrazolo[4,3-c]azepine-7,4′-tetrahydropyran]-1-yl)propyl 5-methylisoxazole-3-carboxylate] was run?
Answer: 100 to 500 nM

Question: With CCc1nn(CCCOC(=O)c2conc2C)c2c1C(=O)NCC1(CCOCC1)C2 [Example 45, 3-(3-ethyl-4-oxo-spiro[6,8-dihydro-5H-pyrazolo[4,3-c]azepine-7,4′-tetrahydropyran]-1-yl)propyl 3-methylisoxazole-4-carboxylate] as the molecule, how does the IC50 read?
Answer: 100 to 500 nM

Question: For CCc1nn(CCCOC(=O)c2coc(C)n2)c2c1C(=O)NCC1(CCOCC1)C2 [Example 46, 3-(3-ethyl-4-oxo-spiro[6,8-dihydro-5H-pyrazolo[4,3-c]azepine-7,4′-tetrahydropyran]-1-yl)propyl 2-methyloxazole-4-carboxylate], which IC50 is on record?
Answer: > 500 nM

Question: Which IC50 does the source give for CCc1nn(CCCOC(=O)c2ocnc2C)c2c1C(=O)NCC1(CCOCC1)C2 [Example 47, 3-(3-ethyl-4-oxo-spiro[6,8-dihydro-5H-pyrazolo[4,3-c]azepine-7,4′-tetrahydropyran]-1-yl)propyl 4-methyloxazole-5-carboxylate] here?
Answer: 100 to 500 nM

Question: How did the IC50 turn out when CCc1nn(CCCOC(=O)c2cnc(C)o2)c2c1C(=O)NCC1(CCOCC1)C2 [Example 48, 3-(3-ethyl-4-oxo-spiro[6,8-dihydro-5H-pyrazolo[4,3-c]azepine-7,4′-tetrahydropyran]-1-yl)propyl 2-methyloxazole-5-carboxylate] was run?
Answer: 100 to 500 nM

Question: Which IC50 does the source give for CCc1nn(CCCOC(=O)c2cnnn2C)c2c1C(=O)NCC1(CCOCC1)C2 [Example 49, 3-(3-ethyl-4-oxo-spiro[6,8-dihydro-5H-pyrazolo[4,3-c]azepine-7,4′-tetrahydropyran]-1-yl)propyl 3-methyltriazole-4-carboxylate] here?
Answer: 100 to 500 nM

Question: For CCc1nn(CCCOC(=O)c2nnc(C)[nH]2)c2c1C(=O)NCC1(CCOCC1)C2 [Example 50, 3-(3-ethyl-4-oxo-spiro[6,8-dihydro-5H-pyrazolo[4,3-c]azepine-7,4′-tetrahydropyran]-1-yl)propyl 5-methyl-4H-1,2,4-triazole-3-carboxylate], which IC50 is on record?
Answer: > 500 nM

Question: Which IC50 does the source give for CCc1nn(CCCOC(=O)c2nonc2C)c2c1C(=O)NCC1(CCOCC1)C2 [Example 51, 3-(3-ethyl-4-oxo-spiro[6,8-dihydro-5H-pyrazolo[4,3-c]azepine-7,4′-tetrahydropyran]-1-yl)propyl 4-methyl-1,2,5-oxadiazole-3-carboxylate] here?
Answer: 100 to 500 nM

Question: How did the IC50 turn out when CCc1nn(CCCOC(=O)c2cc(O)no2)c2c1C(=O)NCC1(CCOCC1)C2 [Example 52, 3-(3-ethyl-4-oxo-spiro[6,8-dihydro-5H-pyrazolo[4,3-c]azepine-7,4′-tetrahydropyran]-1-yl)propyl 3-hydroxyisoxazole-5-carboxylate] was run?
Answer: 100 to 500 nM

Question: Which IC50 does the source give for CCc1nn(CCCOC(=O)c2ccsn2)c2c1C(=O)NCC1(CCOCC1)C2 [Example 53, 3-(3-ethyl-4-oxo-spiro[6,8-dihydro-5H-pyrazolo[4,3-c]azepine-7,4′-tetrahydropyran]-1-yl)propyl isothiazole-3-carboxylate] here?
Answer: 100 to 500 nM

Question: With CCc1nn(CCCOC(=O)c2ccns2)c2c1C(=O)NCC1(CCOCC1)C2 [Example 54, 3-(3-ethyl-4-oxo-spiro[6,8-dihydro-5H-pyrazolo[4,3-c]azepine-7,4′-tetrahydropyran]-1-yl)propyl isothiazole-5-carboxylate] as the molecule, how does the IC50 read?
Answer: 100 to 500 nM

Question: CCc1nn(CCCOC(=O)c2cnsc2)c2c1C(=O)NCC1(CCOCC1)C2 [Example 55, 3-(3-ethyl-4-oxo-spiro[6,8-dihydro-5H-pyrazolo[4,3-c]azepine-7,4′-tetrahydropyran]-1-yl)propyl isothiazole-4-carboxylate] was tested. Which IC50 did it give?
Answer: 100 to 500 nM

Question: With CCc1nn(CCCOC(=O)c2cncs2)c2c1C(=O)NCC1(CCOCC1)C2 [Example 56, 3-(3-ethyl-4-oxo-spiro[6,8-dihydro-5H-pyrazolo[4,3-c]azepine-7,4′-tetrahydropyran]-1-yl)propyl thiazole-5-carboxylate] as the molecule, how does the IC50 read?
Answer: 100 to 500 nM

Question: Which IC50 does the source give for CCc1nn(CCCOC(=O)c2csnn2)c2c1C(=O)NCC1(CCOCC1)C2 [Example 57, 3-(3-ethyl-4-oxo-spiro[6,8-dihydro-5H-pyrazolo[4,3-c]azepine-7,4′-tetrahydropyran]-1-yl)propyl thiadiazole-4-carboxylate] here?
Answer: 100 to 500 nM
